Experimental data: patent US20030215462A1, “Use of UGT inhibitors to increase bioavailability” (priority 2001, published 2003)
“And” between values parts separate entries of the source, which are not always exact repeats. Equal entries are not always repeated.

Assays:
[1] = system: T1, UGT enzymes of human liver microsomes; experiment: Kinetic and Ki studies of inhibitors of 7-HFC glucuronidation in human liver microsomes; format: biochemical; settings: 7-HFC 20-500 μM; for Km: read-out: Km of 7-HFC glucuronidation (fit of the experiment with this inhibitor)
T1 construct: percentage of control metabolism, 7-HFC glucuronidation; percentage of control metabolism, 7-HFC glucuronidation

UGT1A8 = target: T2, UGT1A8 (Homo sapiens, UniProt Q9HAW9); experiment: Inhibition of raloxifene glucuronidation by recombinant UGT1A8 Supersomes; settings: human, Supersomes with recombinant human UGT1A8, pH 7.5, probe raloxifene 50 μM, inhibitor 50 μM
T2 sequence (Q9HAW9 26-530): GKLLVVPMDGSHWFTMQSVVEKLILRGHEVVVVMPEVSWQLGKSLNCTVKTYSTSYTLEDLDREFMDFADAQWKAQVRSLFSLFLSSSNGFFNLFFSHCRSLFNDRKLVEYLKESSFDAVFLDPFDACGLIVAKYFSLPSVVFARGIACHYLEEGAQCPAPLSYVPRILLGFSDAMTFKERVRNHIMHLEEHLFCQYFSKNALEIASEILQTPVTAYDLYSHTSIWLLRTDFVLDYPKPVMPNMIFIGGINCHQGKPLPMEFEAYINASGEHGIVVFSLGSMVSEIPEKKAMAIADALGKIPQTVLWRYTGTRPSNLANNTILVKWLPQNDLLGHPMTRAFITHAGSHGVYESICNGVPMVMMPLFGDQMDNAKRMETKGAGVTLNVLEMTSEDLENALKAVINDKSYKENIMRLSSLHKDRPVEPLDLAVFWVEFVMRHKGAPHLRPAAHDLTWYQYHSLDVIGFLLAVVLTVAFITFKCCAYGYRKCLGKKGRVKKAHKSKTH
Protocol: (§1) Compounds were eluted using a binary solvent gradient system. Solvent A was water brought to pH 8 with NH4OH. Solvent B was methanol. Solvent flow rate was 1 ml/min and the column temperature was maintained at 50° C. Detection was at 280 nm. […] The system was then returned to the initial conditions and equilibrated for 3 min.

[2] = target: T3, UGT enzymes of human liver microsomes (Homo sapiens, UniProt P16662); experiment: Inhibition of zidovudine glucuronidation in human liver microsomes; format: biochemical; settings: liver lot 062101
T3 construct: residual metabolism (percentage of control), zidovudine glucuronidation; other: liver lot 062101; residual metabolism (percentage of control), zidovudine glucuronidation; residual metabolism (percentage of control)
T3 sequence (P16662 1-529): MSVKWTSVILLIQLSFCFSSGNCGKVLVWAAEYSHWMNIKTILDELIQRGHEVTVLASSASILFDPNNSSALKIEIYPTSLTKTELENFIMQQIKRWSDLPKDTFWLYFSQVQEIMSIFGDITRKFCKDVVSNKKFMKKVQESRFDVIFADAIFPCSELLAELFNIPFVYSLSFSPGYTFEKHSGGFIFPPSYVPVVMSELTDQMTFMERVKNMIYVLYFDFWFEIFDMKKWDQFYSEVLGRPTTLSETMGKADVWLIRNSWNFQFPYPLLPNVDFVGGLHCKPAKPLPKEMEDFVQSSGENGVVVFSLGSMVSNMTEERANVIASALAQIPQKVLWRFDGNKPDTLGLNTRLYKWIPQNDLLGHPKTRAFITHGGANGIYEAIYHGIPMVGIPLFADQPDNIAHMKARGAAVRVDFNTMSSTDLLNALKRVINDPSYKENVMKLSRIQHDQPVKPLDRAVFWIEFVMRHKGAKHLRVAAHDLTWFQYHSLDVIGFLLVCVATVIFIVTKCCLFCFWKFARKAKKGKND
Protocol: Compounds were eluted using a binary solvent gradient system where solvent A was dilute phosphoric acid (pH 3) and solvent B was acetonitrile.
Standardized incubations utilized 500 μM zidovudine substrate, 1 mg/ml microsomal protein, 5 mM UDPGA and a 30 min incubation time. […] Int.

UGT1A1 = target: T4, UGT1A1 (Homo sapiens, UniProt P22309); experiment: Inhibition of raloxifene glucuronidation by recombinant UGT1A1 Supersomes; settings: for activity at 15 min / activity at 15 min, 25 µM / activity at 15 min, 50 µM / activity at 15 min, 10 µM: human; for activity at 15 min, 25 µM: inhibitor 25 μM; for activity at 15 min, 50 µM: inhibitor 50 μM; for activity at 15 min, 10 µM: inhibitor 10 μM
T4 sequence (P22309 26-533): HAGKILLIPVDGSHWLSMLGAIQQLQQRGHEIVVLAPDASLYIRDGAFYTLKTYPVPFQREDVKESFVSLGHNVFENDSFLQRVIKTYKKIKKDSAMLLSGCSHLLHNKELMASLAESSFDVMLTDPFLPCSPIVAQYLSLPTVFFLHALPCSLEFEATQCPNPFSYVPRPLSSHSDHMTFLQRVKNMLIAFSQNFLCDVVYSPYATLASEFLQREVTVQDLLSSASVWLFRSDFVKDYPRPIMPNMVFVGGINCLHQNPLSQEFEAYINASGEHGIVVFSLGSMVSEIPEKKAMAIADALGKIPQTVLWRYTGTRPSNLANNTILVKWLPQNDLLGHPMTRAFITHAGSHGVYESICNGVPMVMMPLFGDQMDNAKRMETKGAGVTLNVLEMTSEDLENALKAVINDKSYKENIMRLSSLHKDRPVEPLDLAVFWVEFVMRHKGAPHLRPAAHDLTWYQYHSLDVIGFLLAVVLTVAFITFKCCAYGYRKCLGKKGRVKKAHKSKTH
Protocol: as §1

[3] = system: UGT enzymes of pooled human jejunum microsomes; experiment: Inhibition of 2ME2 glucuronidation (MG1) in pooled human jejunum microsomes; format: biochemical; settings: jejunum HJ61, 2ME2 50 μM
Excerpt: Compounds were eluted using a binary solvent gradient system where solvent A was dilute phosphoric acid (pH 3) and solvent B was 80:20 acetonitrile-methanol. […] Detection was at 280 nm.

[4] = formation of glucuronide G1, % of control metabolism, raloxifene G1, UGT1A8
[5] = formation of glucuronide G2, % of control metabolism, raloxifene G2, UGT1A8
[6] = Supersomes with recombinant human UGT1A1, pH 7.5, probe raloxifene 50 μM, formation of glucuronide G1
[7] = Supersomes with recombinant human UGT1A1, pH 7.5, probe raloxifene 50 μM, formation of glucuronide G1, % of control metabolism, raloxifene G1, UGT1A1
[8] = Supersomes with recombinant human UGT1A1, pH 7.5, probe raloxifene 50 μM, formation of glucuronide G1, Inhibition of raloxifene glucuronidation, G1, UGT1A1, G1, raloxifene 50 μM, 250 μg/ml Supersomes, 1 mM UDPGA, 15 min
[9] = Supersomes with recombinant human UGT1A1, pH 7.5, probe raloxifene 50 μM, formation of glucuronide G2, % of control metabolism, raloxifene G2, UGT1A1
[10] = recombinant UGT1A1 Supersomes, pH 7.5, probe raloxifene 50 μM (formation of glucuronide G2)
[11] = recombinant UGT1A1 Supersomes, pH 7.5, probe raloxifene 50 μM (formation of glucuronide G2), Inhibition of raloxifene glucuronidation, G2, UGT1A1, G2, raloxifene 50 μM, 250 μg/ml Supersomes, 1 mM UDPGA, 15 min

| Compound | Vmax of 7-HFC glucuronidation (fit of the experiment with this inhibitor) [1] [nmol/min/mg] | Km [1] [µM] | activity at 15 min, 50 µM (UGT1A8; [4]) [%] | activity at 15 min, 50 µM (UGT1A8; [5]) [%] | activity at 15 min (UGT1A1; [6]) [%] | activity at 15 min, 25 µM (UGT1A1; [7]) [%] | activity at 15 min, 50 µM (UGT1A1; [7]) [%] | activity at 15 min, 25 µM (UGT1A1; [8]) [%] | activity at 15 min, 50 µM (UGT1A1; [8]) [%] | activity at 15 min, 25 µM (UGT1A1; [9]) [%] | activity at 15 min, 50 µM (UGT1A1; [9]) [%] | activity at 15 min (UGT1A1; [10]) [%] | activity at 15 min, 25 µM (UGT1A1; [11]) [%] | activity at 15 min, 50 µM (UGT1A1; [11]) [%] | residual metabolism (% of control), 2ME2 MG1 ([3]; inhibitor 50 μM) | residual metabolism (% of control), 2ME2 MG1 ([3]; inhibitor 100 μM) | other results |
| --- | --- | --- | --- | --- | --- | --- | --- | --- | --- | --- | --- | --- | --- | --- | --- | --- | --- |
| O=C(O[C@@H]1Cc2c(O)cc(O)cc2O[C@H]1c1cc(O)c(O)c(O)c1)c1cc(O)c(O)c(O)c1 [Gallocatechin gallate] | 54 ± 3 | 75 ± 7 | 36 | 35 | 79 | 52 | 30 | 52 | 30 | 54 | 32 | 76 | 54 | 32 | 31 (1) % | 9 (1) % | residual metabolism (percentage of control), zidovudine glucuronidation ([2]; inhibitor 50 μM): 66 (3) %; residual metabolism (percentage of control), zidovudine glucuronidation ([2]; inhibitor 100 μM): 56 (1) % and 59 (3) %; residual metabolism (percentage of control), zidovudine glucuronidation ([2]; inhibitor 200 μM): 49 (1) % and 40 (2) %; residual metabolism (% of control), 2ME2 MG1 ([3]; inhibitor 10 μM): 69 (3) %; residual metabolism (% of control), 2ME2 MG1 ([3]; inhibitor 25 μM): 51 (2) % |
| CCCCCCCCOC(=O)c1cc(O)c(O)c(O)c1 [Octyl gallate] | 57 ± 3 | 81 ± 7 | 116 | 95 | 65 | 37 | 18 | 37 | 18 | 51 | 31 | 75 | 51 | 31 | 121 (7) % | 58 (3) % | residual metabolism (percentage of control), zidovudine glucuronidation ([2]; inhibitor 500 μM): 54 (3) %; residual metabolism (percentage of control), zidovudine glucuronidation ([2]; inhibitor 1000 μM): 17 (1) %; inhibition of raloxifene glucuronidation, in words (UGT1A1; UGT1A1): excellent inhibitor; activity at 15 min, 10 µM (UGT1A1; [7]): 65%; activity at 15 min, 10 µM (UGT1A1; [9]): 75% |
